Measurements taken from paper PMC7395068, “The evolution of strategies to minimise the risk of human drug-induced liver injury (DILI) in drug discovery and development” (Archives of Toxicology, 2020).
Where two headings read alike, the source gives them in different places.

Tests used:
[1] = cited from earlier work
HepG2 cells [2] = conditions: cited from earlier work; for Structural based (HCI): In vitro Assay, ref O'Brien 2006
HepG2 cells [3] = conditions: cited from earlier work; for Cluser analysis / Structural based (HCI): In vitro Assay, ref Persson 2013
HepG2 cells [4] = conditions: In vitro Assay; ref Tolosa 2012; cited from earlier work
human hepatocytes = conditions: In vitro Assay; ref Xu 2008; cited from earlier work
PHH = conditions: cited from earlier work; for PHH ATP <100uM: In vitro Assay, ref Proctor 2017
hLiMTs [5] = conditions: cited from earlier work; for hLiMTs ATP <100uM: In vitro Assay, ref Proctor 2017
[6] = cited from earlier work; remark: listed apart in the source
hu-MPCC = conditions: In vitro Assay; ref Khetani 2012; cited from earlier work
[7] = test system: HepG2 cells, primary human hepatocytes; conditions: In vitro Assay; ref Garside 2014; cited from earlier work
[8] = test system: isolated mouse liver mitochondria; conditions: In vitro Assay; ref Porceddu 2012; cited from earlier work
Upcyte human hepatocytes = conditions: In vitro Assay; ref Tolosa 2019; cited from earlier work
[9] = ref Chen 2011; cited from earlier work
rBsep = conditions: In vitro Assay; ref Dawson 2012; cited from earlier work
RMPCC's = conditions: In vitro Assay; ref Khetani 2012; cited from earlier work
[10] = Plasma free fraction (fu) and unbound Cmax (Cmax,u); type: in vitro ADME, human; conditions: unbound plasma Cmax
Experimental: The prediction of DILI severity was evaluated further using the 3D combined HCI assays using plasma-free fraction. The majority of fu values were obtained from literature, when unavailable in-house prediction was utilised. Unbound plasma Cmax concentrations (Cmax,u) were derived by multiplying total plasma Cmax with the corresponding free fraction (fu) for each compound.

hLiMTs [11] = test system: hLiMTs
HepaRG spheroids [12] = test system: HepaRG spheroids
[13] = test system: primary human hepatocytes, NIH3T3 fibroblasts, BSEP, CYP3A4; conditions: cited from earlier work
PHH spheroids = conditions: cited from earlier work
[14] = read-out: Human plasma Cmax; total plasma Cmax.tot, median of 9 literature references; cited from earlier work
[15] = plasma free fraction; cited from earlier work
[16] = test system: THLE-Null and THLE-3A4 cells; conditions: In vitro Assay; ref Gustafsson 2014; cited from earlier work
hLiMTs [17] = assay: Combined HCI (HCS) and cellular ATP 3D assay in hLiMTs; conditions: for AC50 / minimal effective concentration: Homo sapiens
HepaRG spheroids [18] = assay: Combined HCI (HCS) and cellular ATP 3D assay in HepaRG spheroids; conditions: HepaRG; for AC50 / minimal effective concentration: Homo sapiens

## C[C@@H]1C[C@H]2[C@@H]3CCC4=CC(=O)C=C[C@]4(C)[C@@]3(F)[C@@H](O)C[C@]2(C)[C@@]1(O)C(=O)CO [dexamethasone]
[1]; ref Chen 2016
  DILI +VE (5-8), DILI -VE (-4): -VE
  DILI severity category: Ambiguous DILI-concern
HepG2 cells [2]
  Structural based (HCI): -VE
HepG2 cells [3]
  Cluser analysis: -VE
  Structural based (HCI): -VE
HepG2 cells [4]
  Structural based (HCI): -VE
Human hepatocytes
  Structural based (HCI): -VE
PHH
  PHH ATP <100uM: -VE
hLiMTs [5]
  hLiMTs ATP <100uM: -VE
[6]; […]
  In vivo DILI: -VE
[6]; ref Dawson 2012
  In vivo DILI: -VE
[6]; ref Garside 2014
  In vivo DILI: -VE
[6]; ref Gustafsson 2014
  In vivo DILI: -VE
[6]; ref Khetani 2012
  In vivo DILI: -VE
[6]; ref O'Brien 2006
  In vivo DILI: -VE
[6]; ref Persson 2013
  In vivo DILI: -VE
[6]; ref Porceddu 2012
  In vivo DILI: +VE
[6]; ref Proctor 2017
  In vivo DILI: -VE
[6]; ref Tolosa 2012
  In vivo DILI: -VE
[6]; ref Tolosa 2019
  In vivo DILI: -VE
[6]; ref Williams 2019
  In vivo DILI: -VE
[6]; ref Xu 2008
  In vivo DILI: -VE
hu-MPCC
  HMPCC's: -VE
[7]
  Cluster 1-6 +VE Assay: -VE
[8]
  in vitro data EC2<=1x Cmax: -VE
  in vitro data EC20<=2uM: -VE
Upcyte human hepatocytes
  Upcytes multi donor assay 14day data: -VE
[9]
  DILI Score (FDA) (1-8): 3
rBsep
  Inhibition of rBsep cutoff<1& cmax u>.2: -VE
  Inhibition of rBsep cutoff<3: +VE
RMPCC's
  RMPCC's: -VE

## CC(=O)N1CCN(c2ccc(OCC3COC(Cn4ccnc4)(c4ccc(Cl)cc4Cl)O3)cc2)CC1 (stereo not shown) [ketoconazole, reference compound]
[10]
  Human plasma Cmax,u: 0.565 µM
hLiMTs [11]
  DILI prediction hLiMTs (HCS-MEC): +VE (key: +VE: MEC < 25 × Cmax.tot cut-off)
HepaRG spheroids [12]
  DILI prediction HepaRG spheroids (HCS-MEC): +VE (key: +VE: MEC < 25 × Cmax.tot cut-off)
[1]; LTKB DILIrank category, ref Chen et al. 2016
  DILI severity category (Chen et al. [2016]): Most
[1]; human DILI classification, LTKB DILIrank, ref Chen et al. 2016
  DILI severity category (Chen 2016): Most
[1]; human DILI severity, ref Chen et al.
  DILI severity category: Most
[1]; ref Chen 2016
  DILI +VE (5-8), DILI -VE (-4): +VE
  DILI severity category: vMost-DILI-Concern
[13]
  Cellular toxicity (3T3 cells): -VE
  Combined Assay: +VE
  DILI in vitro assay prediction, Schadt (2015): +VE
  GSH adduct HML: -VE
  Hepatocyte cellular toxicity: +VE
  MitoTox 3T3: -VE
  TDI CYP3A4: -VE
  hBSEP inhibition: +VE
HepG2 cells [2]
  Structural based (HCI): +VE
HepG2 cells [2]; Structural based (HCI), HepG2, ref O'Brien et al. 2006
  DILI in vitro assay prediction, O'Brien (2006): +VE (lowest HCI endpoint IC50 (or in the absence of dose–response < 100 µM) < 30 × total human plasma exposure levels (Cmax.tot))
HepG2 cells [3]
  Cluser analysis: +VE
  Structural based (HCI): +VE
HepG2 cells [3]; Structural based (HCI), HepG2, ref Persson et al. 2013
  DILI in vitro assay prediction, Persson (2013): +VE
PHH; 2D PHH, ATP, IC50 threshold 100 µM, ref Proctor et al. 2017
  PHH/100uM, Proctor (2017): +VE (IC50 threshold of 100 µM)
PHH
  PHH ATP <100uM: +VE (IC50 threshold of 100 µM)
hLiMTs [5]
  hLiMTs ATP <100uM: +VE (IC50 threshold of 100 µM)
hLiMTs [5]; hLiMTs, ATP, IC50 threshold 100 µM, ref Proctor et al. 2017
  hLiMTs/100uM, Proctor (2017): +VE (IC50 threshold of 100 µM)
PHH spheroids; In vitro Assay, ref Vorrink 2018
  hLiMTs ATP <20 x Cmax: +VE (IC20 < 20 × Cmax.tot cut-off)
PHH spheroids; PHH spheroids, ATP, 14 days, IC20 < 20 × Cmax.tot, ref Vorrink et al. 2018
  DILI in vitro assay prediction, Vorrink (2018): +VE (IC20 < 20 × Cmax.tot cut-off)
[14]
  Cmax: 11.3 µM
[15]
  fu: 0.050
[6]; Chen et al. 2016 or literature alignment, ref Chen et al. 2016
  Assigned DILI category: 3
[6]; […]
  In vivo DILI: +VE
[6]; ref Albrecht 2019
  In vivo DILI: +VE
[6]; ref Aleo 2019
  In vivo DILI: +VE
[6]; ref Dawson 2012
  In vivo DILI: +VE
[6]; ref Garside 2014
  In vivo DILI: +VE
[6]; ref Gustafsson 2014
  In vivo DILI: +VE
[6]; ref O'Brien 2006
  In vivo DILI: +VE
[6]; ref Persson 2013
  In vivo DILI: +VE
[6]; ref Porceddu 2012
  In vivo DILI: +VE
[6]; ref Proctor 2017
  In vivo DILI: +VE
[6]; ref Schadt 2015
  In vivo DILI: +VE
[6]; ref Tolosa 2019
  In vivo DILI: +VE
[6]; ref Vorrink 2018
  In vivo DILI: +VE
[6]; ref Williams 2019
  In vivo DILI: +VE
[16]
  THLE-Null: +VE
[7]
  Cluster 1-6 +VE Assay: +VE
[8]
  in vitro data EC2<=1x Cmax: +VE
  in vitro data EC20<=2uM: -VE
Upcyte human hepatocytes
  Upcytes multi donor assay 14day data: +VE
[9]
  DILI Score (FDA) (1-8): 8
rBsep
  Inhibition of rBsep cutoff<1& cmax u>.2: +VE
  Inhibition of rBsep cutoff<3: +VE
hLiMTs [17]; read-out: ATP endpoint AC50
  AC50: 9.09 µM
hLiMTs [17]; read-out: ATP endpoint MEC
  minimal effective concentration: 6.84 µM
hLiMTs [17]; read-out: HCS endpoint AC50
  AC50: 12.4 µM
hLiMTs [17]; read-out: HCS endpoint MEC
  minimal effective concentration: 5.88 µM
hLiMTs [17]; hLiMTs, ATP endpoint, cut-off <25x Avg Cmax
  hLiMTs <25x Avg Cmax ATP: +ve
hLiMTs [17]; hLiMTs, ATP endpoint, cut-off <100x Avg Cmaxu
  hLiMTs <100x Avg Cmaxu ATP: +ve (<100x Avg Cmaxu)
hLiMTs [17]; hLiMTs, HCS endpoints, cut-off <25x Avg Cmax
  hLiMTs <25x Avg Cmax HCS: +ve
hLiMTs [17]; hLiMTs, HCS endpoints, cut-off <100x Avg Cmaxu
  hLiMTs <100x Avg Cmaxu HCS: +ve (<100x Avg Cmaxu)
hLiMTs [17]; hLiMTs, all endpoints (ATP and HCS), cut-off <25x Avg Cmax
  hLiMTs <25x Avg Cmax All: +ve
hLiMTs [17]; hLiMTs, all endpoints, Cmax max used
  hLiMTs Cmax max All: +ve
hLiMTs [17]; hLiMTs, all endpoints, Cmax min used
  hLiMTs Cmax min All: +ve
hLiMTs [17]; hLiMTs, all endpoints, cut-off <10 uM
  hLiMTs <10 uM All: +ve (<10 uM)
hLiMTs [17]; hLiMTs, all endpoints, cut-off <100x Avg Cmaxu
  hLiMTs <100x Avg Cmaxu All: +ve (<100x Avg Cmaxu)
HepaRG spheroids [18]; ATP endpoint, cut-off <25x Avg Cmax
  HepaRG <25x Avg Cmax ATP: +ve
HepaRG spheroids [18]; ATP endpoint, cut-off <100x Avg Cmaxu
  HepaRG <100x Avg Cmaxu ATP: +ve (<100x Avg Cmaxu)
HepaRG spheroids [18]; HCS endpoints, cut-off <25x Avg Cmax
  HepaRG <25x Avg Cmax HCS: +ve
HepaRG spheroids [18]; HCS endpoints, cut-off <100x Avg Cmaxu
  HepaRG <100x Avg Cmaxu HCS: +ve (<100x Avg Cmaxu)
HepaRG spheroids [18]; all endpoints (ATP and HCS), cut-off <25x Avg Cmax
  HepaRG <25x Avg Cmax All: +ve
HepaRG spheroids [18]; all endpoints, Cmax max used
  HepaRG Cmax max All: +ve
HepaRG spheroids [18]; all endpoints, Cmax min used
  HepaRG Cmax min All: +ve
HepaRG spheroids [18]; all endpoints, cut-off <10 uM
  HepaRG <10 uM All: +ve (<10 uM)
HepaRG spheroids [18]; all endpoints, cut-off <100x Avg Cmaxu
  HepaRG <100x Avg Cmaxu All: +ve (<100x Avg Cmaxu)
HepaRG spheroids [18]; read-out: ATP endpoint AC50
  AC50: 8.42 µM
HepaRG spheroids [18]; read-out: ATP endpoint MEC
  minimal effective concentration: 7.27 µM
HepaRG spheroids [18]; read-out: HCS endpoint AC50
  AC50: 15.4 µM
HepaRG spheroids [18]; read-out: HCS endpoint MEC
  minimal effective concentration: 0.713 µM
